Patent publication US8232253B2, “Treatment of lung cancer” (Ramot at Tel-Aviv University Ltd., priority 2006, dated 2012)

What was measured:
[1] = system: A549 cells; assay: BrdU incorporation into DNA; format: cell-based; conditions: Homo sapiens, 75 μM FTS, 48 h, read-out: inhibition of incorporation of BrdU into DNA relative to vehicle-treated control
Protocol: A549 cells were plated on glass cover slips (1.2×10^5 cells/well in 6-well plates) and incubated for 24 h in medium containing 5% FCS. The cells were then incubated for 24 h with or without 75 μM FTS and then for 24 h with 5-bromo-2-deoxyuridine (BrdU) (Zymed BrdU labeling kit, 1:100 dilution). Cells were fixed with 4% paraformaldehyde, permeabilized with 0.2% Triton X-100 (BDH, Poole, UK), washed with PBS, blocked with TBS Tween (TBST; 50 mM Tris, pH 7.4, 100 mM NaCl, 0.1% Tween 20) containing 1% bovine serum albumin (BSA), treated sequentially with 2 N HCl and 0.1 M sodium borate pH 8.5, and then blocked with goat γ-globulin and washed with TBST-BSA (described above). The cells were then labeled successively with mouse anti-BrdU antibody (Ab) (Zymed kit; 1:50 dilution), biotinylated rabbit anti mouse IgG (5 μg/ml), and Cy3-streptavidin (1.5 μg/ml). Cells with BrdU-stained nuclei were counted under a fluorescence microscope.
To investigate the effect of FTS on lung cancer cell proliferation, we first incubated A549 cells that harbor the activated K-ras gene mutated at codon 12. A549 cells are commonly used as a model for drug screening. […] The number of cells in the FTS-treated cultures was determined by direct counting of A549 cells grown for 6 days in the presence of FTS and was expressed as a percentage of the number recorded in the controls. […]

[2] = system: A549 cells; assay: A549-cell-implanted nude mouse model, tumor growth; format: in vivo, nude mice
Protocol: Nude mice (6 weeks old) were housed in barrier facilities on a 12-h light/dark cycle. Food and water were supplied ad libitum. On day zero, A549 or HTB-58 cells (5×10^6 cells in 0.1 ml PBS) were implanted subcutaneously (s.c.) just above the right femoral joint. After 5 or 11 days the mice were separated randomly into control groups that had received only the vehicle and FTS-treated groups. Daily FTS treatments were administered either intraperitoneally (i.p.) or orally. Tumor volumes or weights were determined as described in Barkan, B., Starinsky, S., Friedman, E., Stein, R., Kloog, Y., Clin Cancer Res 12:5533-42 (2006). Gemcitabine treatment (36 mg/kg, i.p.) was administered every 4 days.
To determine whether FTS inhibited tumor growth in vivo, experiments were conducted using a nude mouse model. The lung cancer cells were implanted s.c. above the right femoral joint and the mice were then treated with FTS. In a first experiment, the effect of i.p. administration of FTS on tumor growth in A549 cells was assessed. Treatment was started 5 days after cell implantation, by which time the tumors were palpable. Tumor volumes were determined 24 days after implantation in two groups of mice (n=8) that had received daily i.p. administration of either the vehicle (control) or 10 mg/kg FTS.
In an additional set of experiments, the A549-cell-implanted nude mouse model was used to examine the effect of orally administered FTS on tumor growth. First, cells were implanted as described above and daily oral treatment with FTS (50 mg/kg; n=6) or vehicle (n=5) was started either 11 days (FIG. 14C) or 6 days (FIG. 14D) after implantation. […] Next, the effects of orally administered FTS, alone or in combination with gemcitabine, on A549-cell tumor growth was examined (FIG. 14D). Six days after cell implantation, mice were divided into four groups (n=8 per group) and treated orally with vehicle alone (control), FTS alone (60 mg/kg), vehicle and gemcitabine (36 mg/kg, i.p. every 4 days), or FTS and gemcitabine. Treatments with gemcitabine began 1 week after FTS treatment was started.

[3] = system: phospho-ERK; assay: Phospho-ERK immunoblotting in A549 cells; format: cell-based, human
Protocol: (§1) A549 cells were incubated for 24 or 48 h with or without FTS, as described above, and then lysed with lysis buffer as described in Haklai, R., Gana-Weisz, M., Elad, G., et al., Biochemistry 37:1306-14 (1998). The apparent amounts of K-Ras-GTP in 0.5 mg protein of total cell lysates were determined by the glutathione-S-transferase (GST)-RBD (Ras-binding domain of Raf) pull-down assay, as described in (Elad-Sfadia, G., Haklai, R., Ballan, E., Gabius, H. J., Kloog, Y., J Biol Chem 277:37169-75 (2002). The apparent amounts of Rac1-GTP and of RhoA-GTP, each in 2 mg protein of total cell lysates, were determined, respectively, by pull-down assays with GST-PBD (Rac1-binding domain of PAK1)-conjugated and GST-Rhotekin BD (Rho-binding domain of Rhotekin)-conjugated beads [Benard, V., Bohl, B. P., Bokoch, G. M, J Biol Chem 274:13198-204 (1999); Fiordalisi, J. J., Keller, P. J., Cox, A. D., Cancer Res 66:3153-61 (2006). […] Levels of phospho-ERK and phospho-Akt were determined by immunoblotting [Haklai, R., Gana-Weisz, M., Elad, G., et al., supra.] using rabbit anti phospho-ERK1/2 Ab (Santa Cruz Biotechnology, Santa Cruz, Calif.) and rabbit anti phospho-Akt Ab (Cell Signaling, Beverly, Mass.). Protein bands were visualized by enhanced chemiluminescence and quantified by densitometry using ImageJ computer software (National institutes of Health, Bethesda, Md.). […]

[4] = system: phospho-Akt; assay: Phospho-Akt immunoblotting in A549 cells; format: cell-based, human
Protocol: as §1

[5] = 50 mg/kg FTS oral daily from day 11, after 16 days of treatment (FIG. 14C)
[6] = 60 mg/kg FTS oral alone, from day 6 (FIG. 14D)

Structure (SMILES): CC(C)=CCC/C(C)=C/CC/C(C)=C/CSc1ccccc1C(=O)O [FTS, S-farnesylthiosalicylic acid]
- inhibition at 75 µM [1]: 56.7 ± 17.4%
- inhibition of tumor growth relative to control (tumor volume) ([2]; 10 mg/kg FTS i.p. daily from day 5, 24 days after implantation): 53.8%
- inhibition in tumor growth [2, 5]: 53.7±19.1%
- tumor weight (mean±SD) [2, 5]: 0.4 ± 0.19 g
- inhibition in tumor growth [2, 6]: 46.2±16.3%
- tumor weight (mean±SD) [2, 6]: 0.49 ± 0.15 g
- inhibition of phospho-ERK level [3]: 33±2%
- inhibition of phospho-Akt level [4]: 58±6%
